PubChem BioAssay (NCI)
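1) Cells in 96-well plates. 2) Compound, 48 h, 5 concentrations. 3) Linear interpolation between surrounding doses. 4) Unreached endpoint = highest concentration. TGI: total growth inhibition.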

What was measured:
Assay in all cases: NCI anticancer screen, dose series, 48 h
HCT-116 colon = tested on: HCT-116 colon
SK-MEL-28 melanoma = tested on: SK-MEL-28 melanoma
UO-31 renal = tested on: UO-31 renal
SR leukemia = tested on: SR leukemia
HCT-15 colon = tested on: HCT-15 colon
A498 renal = tested on: A498 renal
CAKI-1 renal = tested on: CAKI-1 renal
HOP-92 NSCLC = tested on: HOP-92 NSCLC
MCF7 breast = tested on: MCF7 breast
OVCAR-8 ovarian = tested on: OVCAR-8 ovarian
SNB-19 CNS = tested on: SNB-19 CNS
SN12C renal = tested on: SN12C renal
BT-549 breast = tested on: BT-549 breast
SNB-75 CNS = tested on: SNB-75 CNS
HT29 colon = tested on: HT29 colon
SF-539 CNS = tested on: SF-539 CNS
U251 CNS = tested on: U251 CNS
HCC-2998 colon = tested on: HCC-2998 colon
K-562 leukemia = tested on: K-562 leukemia
TK-10 renal = tested on: TK-10 renal

Row | SMILES | TGI (HCT-116 colon) [µM] | TGI (SK-MEL-28 melanoma) [µM] | TGI (UO-31 renal) [µM] | TGI (SR leukemia) [µM] | TGI (HCT-15 colon) [µM] | TGI (A498 renal) [µM] | TGI (CAKI-1 renal) [µM] | TGI (HOP-92 NSCLC) [µM] | TGI (MCF7 breast) [µM] | TGI (OVCAR-8 ovarian) [µM] | TGI (SNB-19 CNS) [µM] | TGI (SN12C renal) [µM] | TGI (BT-549 breast) [µM] | TGI (SNB-75 CNS) [µM] | TGI (HT29 colon) [µM] | TGI (SF-539 CNS) [µM] | TGI (U251 CNS) [µM] | TGI (HCC-2998 colon) [µM] | TGI (K-562 leukemia) [µM] | TGI (TK-10 renal) [µM]
1 | CCCSc1ccc2[nH]c(/N=C/c3ccco3)cc2c1 | > 100 | > 100 | > 100 | 35.7 | > 100 | > 100 | > 100 | > 100 | > 100 | > 100 | > 100 | > 100 | > 100 | > 100 | > 100 | 42.5 |  |  |  | 
2 | C1CNCCNCCN1 | > 100 | > 100 | > 100 | > 100 | > 100 | > 100 | > 100 | > 100 | > 100 | > 100 | > 100 | > 100 | > 100 |  | > 100 | > 100 | > 100 | > 100 | > 100 | > 100
3 | CCC1(C(=O)OC(C)(C)C)OC12C(C)CCCC2C (stereo not given) | > 100 | > 100 | > 100 | 38.3 | > 100 | > 100 | > 100 | 85.9 | 51.4 | > 100 | > 100 | > 100 | > 100 | 97.7 | > 100 | > 100 | > 100 | 45.1 | 52.8 | > 100
4 | COC(=O)[C@H](Cc1ccccc1)NC(=O)[C@H](Cc1ccccc1)NC(=O)[C@@H]1CCCN1C(=O)N[C@H]1C2C=CC(C2)C1C(=O)N1CCC[C@H]1C(=O)N[C@@H](C)C(=O)N[C@H](C(=O)OC)C(C)C (stereo not given in full) | > 100 | > 100 | > 100 | > 100 | > 100 | > 100 | > 100 | > 100 | > 100 | > 100 | > 100 | > 100 | > 100 | > 100 | > 100 |  | > 100 |  | > 100 | > 100
5 | CCn1nc2c3c(ncn3C(C)(C)O2)c1=O | > 100 | > 100 | > 100 | > 100 | > 100 | > 100 | > 100 | > 100 | > 100 |  | > 100 | > 100 | > 100 |  | > 100 |  | > 100 | > 100 | > 100 | > 100
6 | O=C(OCC1OC2OC(c3ccccc3)(n3ccc4c([N+](=O)[O-])ccnc43)OC2C1OC(=O)c1ccccc1)c1ccccc1 (stereo not given) | > 100 | > 100 | > 100 | > 100 | > 100 | > 100 | > 100 | > 100 | > 100 | > 100 | > 100 | > 100 | > 100 |  | > 100 |  | > 100 | > 100 | > 100 | > 100
7 | Cc1cc(C)cc(Nc2cc(=O)[nH]c(=O)[nH]2)c1 | > 100 | > 100 | > 100 | > 100 | > 100 | > 100 |  | > 100 | > 100 | > 100 | > 100 | > 100 | > 100 | > 100 | > 100 | > 100 | > 100 | > 100 | > 100 | > 100
8 | CCOC(=O)/C=C(/C(=O)OCC)n1ccc(N)nc1=O | > 100 | > 100 | > 100 | > 100 | > 100 |  | > 100 | > 100 | > 100 | > 100 | > 100 | > 100 | > 100 | > 100 | > 100 | > 100 | > 100 | > 100 | > 100 | > 100
9 | CC1=NN2C(=N)/C(=C/c3ccco3)C(=O)N=C2S1 | > 100 | > 100 | > 100 | > 100 | > 100 | > 100 | > 100 | > 100 | > 100 | > 100 | > 100 | > 100 | > 100 | > 100 | > 100 | > 100 | > 100 | > 100 | > 100 | > 100
10 | Cc1ccc2c(=O)cc(-c3cccs3)[nH]c2n1 | > 100 | > 100 | 35.6 | > 100 | > 100 | > 100 | > 100 | > 100 | > 100 | > 100 | 82.2 | > 100 | > 100 | 63.3 | > 70.9 | 33.1 | > 100 | > 83.2 | > 100 | > 100
11 | Nc1ccc(N=Nc2ccccc2)cc1 | > 100 | > 100 | > 100 | > 100 | > 100 | > 100 | > 100 | > 100 | > 100 | > 100 | > 100 | > 100 | > 100 | 56 | > 100 | > 100 | > 100 | > 100 | > 100 | > 100
12 | COc1ccc(/C=N/N=C(\N)NO)c(O)c1 | > 10 | > 10 | > 10 | > 10 | > 10 | > 10 | 9.58 | > 10 | > 10 | > 10 | > 10 | > 10 | > 10 | 2.42 | > 10 | > 10 | > 10 | > 10 | > 10 | > 10
13 | Nc1c(Cl)ncnc1N[C@@H]1C[C@H]1CO | > 100 | > 100 | > 100 | > 100 | > 100 | > 100 | > 100 | > 100 | > 100 | > 100 | > 100 | > 100 | > 100 | > 100 | > 100 | > 100 | > 100 | > 100 | > 100 | > 100
14 | CC(=O)c1ccc2c3c1[C@@H]1O[C@@H]1c1cccc(c1-3)[C@@H]1O[C@H]21 | 13.9 | 13 | 30.2 | > 100 | 12.5 | > 85.8 | 15 | 29.7 | > 40.1 | 18.1 | > 60.9 | 23.9 | 35.1 | 34.5 | > 27.9 |  | 19.3 |  | > 100 | > 77.1
15 | O=C1CCCCC(=O)OC2(CCCCC2=O)CC1 (stereo not given) | > 100 | > 100 | > 100 | > 100 | > 100 | > 100 | > 100 | > 100 | > 100 | > 100 |  | > 100 | > 100 | > 100 | > 100 | > 100 | > 100 | > 100 | > 100 | > 100
16 | O=c1c2c([N+](=O)[O-])cccc2nc2[nH]c3ccccc3n12 | > 75 | > 75 |  | > 75 | > 75 | > 75 | 45 | 69 | > 75 | 31 | > 75 | > 75 | 51.1 |  | > 75 | 25.3 | > 75 | 52.2 | > 75 | 51.6
17 | CC1(CF)SCc2nc3ccccc3n21 (stereo not given) | > 100 | > 100 | > 100 | > 100 | > 100 | > 100 | > 100 | > 100 | > 100 | > 100 | > 100 | > 100 | > 100 | > 100 | > 100 | > 100 | > 100 | > 100 |  | > 100
18 | C=CCCC(=O)CC(O)(C(F)(F)F)C(F)(F)F | > 100 | > 100 | > 100 | > 100 | > 100 | > 100 | > 100 | > 100 | > 100 | > 100 | > 100 |  | > 100 | > 100 | > 100 | > 100 | > 100 | > 100 | > 100 | > 100
19 | CCC(C#N)NC(=O)NC(C#N)CC (stereo not given) | > 100 |  | > 100 | > 100 | > 100 | > 100 | > 100 | > 100 | > 100 | > 100 | > 100 | > 100 | > 100 |  | > 100 | > 100 | > 100 | > 100 | > 100 | > 100
20 | CCOC(=O)/C1=C(\C)N(c2ccc(C)cc2)C(=O)c2ccccc2C(=O)c2c(OC(C)=O)ccc(OC(C)=O)c21 | 35.9 | 12.2 | > 100 | 35.7 | 43.9 | > 100 | 38.5 | > 100 | 97.7 | > 100 | 90.1 | 50.5 | 90.2 | > 100 | 35.7 | 69.1 | 97.9 |  | 38.7 | 44.4
21 | COc1cc(C2SCC(=O)N2c2ccc(-c3ccc(-n4c(-c5ccccc5)nc5ccccc5c4=O)cc3)cc2)cc(OC)c1OC (stereo not given) | 35.1 | > 100 | > 100 | > 100 | > 100 | > 100 | 45.8 | > 100 | > 100 | > 100 | > 100 | > 100 | 55.4 |  | > 100 | > 100 | > 100 | > 100 | > 100 | > 100
22 | CC(=O)N1N=C(c2ccc3ccccc3c2O)CC1C(=O)c1ccco1 (stereo not given) | > 100 | > 100 | > 100 | 18.6 | > 100 | > 100 | > 100 | > 100 | > 100 | > 100 |  | > 100 | > 100 | > 100 | > 100 | 83.8 | > 100 | 55.5 | 41 | > 100
23 | CN(NC(=O)c1cccs1)C1=NCCCN1 | > 100 | > 100 | > 100 | > 100 | > 100 | > 100 |  | > 100 | > 100 | > 100 | > 100 |  | > 100 | > 100 | > 100 | > 100 | > 100 | > 100 | > 100 | > 100
24 | Cc1cn(C(Cc2ccccc2)OCCO)c(=O)[nH]c1=O (stereo not given) | > 100 | > 100 | > 100 | > 100 | > 100 | > 100 | > 100 | > 100 | > 100 | > 100 | > 100 | > 100 | > 100 | > 100 | > 100 | > 100 | > 100 | > 100 | > 100 | 
25 | COC(=O)C1=CC(=O)OC1(OO)c1ccccc1 (stereo not given) | > 100 | > 100 | > 100 | > 100 | > 100 |  | > 100 | > 100 | > 100 | > 100 | > 100 | > 100 | > 100 | > 100 | > 100 | > 100 | > 100 | > 100 | > 100 | > 100
